Patent publication US20080227780A1, “SOLUBLE EPOXIDE HYDROLASE INHIBITORS” (Arete Therapeutics, Inc., priority 2007, published 2008)

System: soluble epoxide hydrolase (sEH)
Assay: Fluorescent assay for soluble epoxide hydrolase (CMNPC substrate), percent inhibition at the recited concentration
Format: biochemical
From the text: Fluorescent Assay for Mouse and Human Soluble Epoxide Hydrolase Recombinant mouse sEH (MsEH) and human sEH (HsEH) were produced in a baculovirus expression system as previously reported. Grant et al., J. Biol. Chem., 268:17628-17633 (1993); Beetham et al., Arch. Biochem. Biophys., 305:197-201 (1993). The expressed proteins were purified from cell lysate by affinity chromatography. Wixtrom et al., Anal. Biochem., 169:71-80 (1988). Protein concentration was quantified using the Pierce BCA assay using bovine serum albumin as the calibrating standard. The preparations were at least 97% pure as judged by SDS-PAGE and scanning densitometry. They contained no detectable esterase or glutathione transferase activity which can interfere with the assay. The assay was also evaluated with similar results in crude cell lysates or homogenate of tissues. The IC50s for each inhibitor were determined according to the following procedure: […] Jones P. D. et al.; Analytical Biochemistry 2005; 343: pp. 66-75) Bis/Tris HCl 25 mM pH 7.0 containing 0.1 mg/mL of BSA (buffer […] at 0.25 mM in DMSO. Mother solution of enzyme in buffer A (Mouse sEH at 6 μg/mL and Human sEH at 5 μg/mL). Inhibitor dissolved in DMSO at the appropriate concentration. In a black 96 well plate, fill all the wells with 150 μL of buffer A. Add 2 μL of DMSO in well A2 and A3, and then add 2 μL of inhibitor solution in A1 and A4 through A12. Add 150 μL of buffer A in row A, then mix several time and transfer 150 μL to row B. Repeat this operation up to row H. The 150 μL removed from row H is discarded. Add 20 μL of buffer A in column 1 and 2, then add 20 μL of enzyme solution to column 3 to 12. Incubate the plate for 5 minutes in the plate reader at 30° C. During incubation prepare the working solution of substrate by mixing 3.68 mL of buffer A (4×0.920 mL) with 266 μL (2×133 μL) of substrate solution). At t=0, add 30 μL of working substrate solution with multi-channel pipette labeled “Briggs 303” and start the reading ([S]final: 5 μM). Read with ex: 330 nm (20 nm) and em: 465 nm (20 nm) every 30 second for 10 minutes. The velocities are used to analyze and calculate the IC50s. Tables 1-7 above provide the percent inhibition of the enzyme when tested at the concentration recited therein.

Structure (SMILES)	% inh. (Inhibition Conc. 50 nM) [%]	% inh. (Inhibition Conc. 2000 nM) [%]	further results
NS(=O)(=O)c1ccc(C(=O)N2CCC(NC(=O)Nc3ccc(C(F)(F)F)cc3)CC2)cc1 [Compound 4-1, 4-(4-(3-(4-(trifluoromethyl)phenyl)ureido)piperidine-1-carbonyl)benzene-sulfonamide]	90	–	–
O=C(NC1CCN(S(=O)(=O)c2ccccc2C(F)(F)F)CC1)NC12CC3CC(CC(C3)C1)C2 [Compound 7-32, 1-adamantyl-3-(1-(2-(trifluoromethyl)phenylsulfonyl)piperidin-4-yl)urea]	97	–	–
CC(C)(C)OC(=O)N1CCC(NC(=O)NC2CCCC2)CC1 [Compound 7-17, tert-butyl 4-(3-cyclopentylureido)-piperidine-1-carboxylate]	–	–	% inh. (Inhibition Conc. 500 nM): 85%
CC(=O)N1CCC(NC(=O)NC2CCC(C)(C)CC2)CC1 [Compound 7-6, 1-(1-acetylpiperidin-4-yl)-3-(4,4-dimethylcyclo-hexyl)urea]	70	–	–
CC(C)(C)OC(=O)N1CCC(NC(=O)NC2CCCCCCC2)CC1 [Compound 7-64, tert-butyl 4-(3-cyclooctylureido)piperidine-1-carboxylate]	–	–	% inh. (Inhibition Conc. 200 nM): 97%
CC(C)(C)OC(=O)N1CCC(NC(=O)Nc2ccc(CN3CCCC3)cc2)CC1 [Compound 7-68, tert-butyl 4-(3-(4-(pyrrolidin-1-ylmethyl)phenyl)ureido)piperidine-1-carboxylate]	–	93	–
COC(=O)c1ccc(NC(=O)NC2CCN(C(C)=O)CC2)s1 [Compound 6-16, methyl 5-(3-(1-acetylpiperidin-4-yl)ureido)thiophene-2-carboxylate]	–	78	–
CC(=O)N1CCC(NC(=O)NC23CC4CC(CC(C4)C2O)C3)CC1 (stereo not drawn) [Compound 3-6, 1-(1-acetylpiperidin-4-yl)-3-(2-hydroxyadamant-1-yl)urea]	–	–	% inh. (Inhibition Conc. 50000 nM): 94%
Cn1cnc(C(=O)N2CCC(NC(=O)NC34CC5CC(CC(C5)C3)C4)CC2)c1 [Compound 7-39, 1-adamantyl-3-(1-(1-methyl-1H-imidazole-4-carbonyl)piperidin-4-yl)urea]	89	–	–
O=C(NC1CCN(C(=O)CCCO)CC1)NC12CC3CC(CC(C3)C1)C2 [Compound 7-73, 1-adamantyl-3-(1-(4-hydroxybutanoyl)piperidin-4-yl)urea]	–	–	% inh. (Inhibition Conc. 200 nM): 94%
O=C(NC1CCN(S(=O)(=O)c2cccc(C(F)(F)F)c2)CC1)NC12CC3CC(CC(C3)C1)C2 [Compound 7-38, 1-adamantyl-3-(1-(3-(trifluoromethyl)phenylsulfonyl)piperidin-4-yl)urea]	100	–	–
CNS(=O)(=O)c1ccc(C(=O)N2CCC(NC(=O)NC34CC5CC(CC(C5)C3)C4)CC2)cc1 [Compound 4-8, 4-(4-(3-(1-adamantyl)ureido)-piperidine-1-carbonyl)-N-methylbenzene-sulfonamide]	93	–	–
CC(=O)N1CCC(NC(=O)NCC23CC4CC(CC(C4)C2)C3)CC1 [Compound 1-1, 1-(1-acetyl-piperidin-4-yl)-3-(1-adamantyl-methyl)-urea]	87	–	–
CC(=O)N1CCC(NC(=O)NC2CCC3(CCCC3)CC2)CC1 [Compound 7-83, 1-(1-acetylpiperidin-4-yl)-3-(spiro[4.5]decan-8-yl)urea]	–	100	–
CC(=O)N1CCC(NC(=O)NCc2ccc(C(F)(F)F)cc2)CC1 [Compound 1-3, 1-(1-acetylpiperidin-4-yl)-3-(4-(trifluoromethyl)benzyl)urea]	–	–	% inh. (Inhibition Conc. 200 nM): 93%
O=C(Nc1ccc(OC(F)(F)F)cc1)NC1CCN(C(=O)CCCO)CC1 [Compound 7-71, 1-(1-(4-hydroxybutanoyl)piperidin-4-yl)-3-(4-(trifluoromethoxy)phenyl)urea]	–	–	% inh. (Inhibition Conc. 200 nM): 84%
O=C(Nc1ccc(OC(F)(F)F)cc1)NC1CCN(C(=O)N2CCOCC2)CC1 [Compound 7-79, 1-(1-(morpholine-4-carbonyl)piperidin-4-yl)-3-(4-(trifluoromethoxy)phenyl)urea]	–	–	% inh. (Inhibition Conc. 200 nM): 98%

Structure (SMILES)	% inh. (Inhibition Conc. 50 nM) [%]	% inh. (Inhibition Conc. 2000 nM) [%]	further results
COC(=O)c1ccc(NC(=O)NC2CCN(C(=O)OC(C)(C)C)CC2)cc1 [Compound 7-67, tert-butyl 4-(3-(4-(methoxycarbonyl)phenyl)ureido)piperidine-1-carboxylate]	–	96	–
CC(C)(C)c1ccc(S(=O)(=O)N2CCC(NC(=O)NC34CC5CC(CC(C5)C3)C4)CC2)cc1 [Compound 7-30, 1-(1-(4-tert-butylphenylsulfonyl)piperidin-4-yl)-3-adamantylurea]	97	–	–
CC(C)(C)OC(=O)N1CCC(NC(=O)Nc2ccncc2)CC1 [Compound 6-3, tert-butyl 4-(3-pyridin-4-yl-ureido)piperidine-1-carboxylate]	–	–	% inh. (Inhibition Conc. 5000 nM): 81%
COc1ccc(CNC(=O)NC2CCN(C(C)=O)CC2)cc1OC [Compound 1-5, 1-(1-acetylpiperidin-4-yl)-3-(3,4-dimethoxy-benzyl)urea]	–	66	–
CC(C)(C)OC(=O)N1CCC(NC(=O)NC2CCC2)CC1 [Compound 7-50, tert-butyl 4-(3-cyclobutylureido)piperidine-1-carboxylate]	–	–	% inh. (Inhibition Conc. 200 nM): 76%
O=C(NC1CCN(S(=O)(=O)c2ccccc2)CC1)NC12CC3CC(CC(C3)C1)C2 [Compound 7-26, 1-adamantyl-3-(1-(phenylsulfonyl)piperidin-4-yl)urea]	97	–	–
O=C(NC1CCN(S(=O)(=O)c2cccs2)CC1)NC12CC3CC(CC(C3)C1)C2 [Compound 7-28, 1-adamantyl-3-(1-(thiophen-2-ylsulfonyl)piperidin-4-yl)urea]	94	–	–
CC(=O)N1CCC(NC(=O)NC2CCC(F)(F)CC2)CC1 [Compound 7-62, 1-(1-acetylpiperidin-4-yl)-3-(4,4-difluorocyclohexyl)urea]	–	82	–
CC(=O)N1CCC(NC(=O)NC2CCCC2)CC1 [Compound 7-18, 1-(1-acetylpiperidin-4-yl)-3-cyclopentylurea]	–	–	% inh. (Inhibition Conc. 5000 nM): 74%
O=C(NC1CCN(C(=O)NC23CC4CC(CC(C4)C2)C3)CC1)NC12CC3CC(CC(C3)C1)C2 [Compound 7-56, N-adamantyl-4-(3-adamantylureido)piperidine-1-carboxamide]	–	–	% inh. (Inhibition Conc. 200 nM): 86%
COC(=O)c1ccc(NC(=O)NC2CCN(C(=O)OC(C)(C)C)CC2)s1 [Compound 6-17, tert-butyl 4-(3-(5-(methoxycarbonyl)thiophen-2-yl)ureido)piperidine-1-carboxylate]	–	–	% inh. (Inhibition Conc. 200 nM): 87%
COC(=O)c1ccc(CNC(=O)NC2CCN(C(C)=O)CC2)cc1 [Compound 1-8, methyl 4-((3-(1-acetylpiperidin-4-yl)ureido)methyl)benzoate]	–	95	–
CNS(=O)(=O)c1ccc(C(=O)N2CCC(NC(=O)Nc3ccc(C(F)(F)F)cc3)CC2)cc1 [Compound 4-7, 4-(4-(3-(4-(trifluoromethyl)phenyl)ureido)piperidine-1-carbonyl)-N-methylbenzene-sulfonamide]	92	–	–
CC(=O)N1CCC(NC(=O)Nc2ccc(S(C)(=O)=O)cc2)CC1 [Compound 7-60, 1-(1-acetylpiperidin-4-yl)-3-(4-(methylsulfonyl)phenyl)urea]	–	33	–
CC(=O)N1CCC(NC(=O)Nc2ccc(C#N)cc2)CC1 [Compound 7-80, 1-(1-acetylpiperidin-4-yl)-3-(4-cyanophenyl)urea]	–	80	–
CN(C)c1ccc(NC(=O)NC2CCN(C(=O)OC(C)(C)C)CC2)cc1 [Compound 7-65, tert-butyl 4-(3-(4-(dimethylamino)phenyl)ureido)piperidine-1-carboxylate]	–	95	–
